Experimental data reported in patent US20240140949A1, “ANTI-CANCER PHARMACEUTICAL COMPOSITION FOR TARGETING HEAT SHOCK PROTEIN 70, CONTAINING INDOLOQUINAZOLIDINE ALKALOID” (SEOUL NATIONAL UNIVERSITY R & DB FOUNDATION, priority 2021, published 2024).

Columns and labels:
[1] = test system: H1299 lung cancer cells; experiment: Cell viability (MTT assay) in H1299 cells; assay type: cell-based, human; conditions: 100 nM, 3 days, MTT, compared with evodiamine and EV501-EV509 (FIG. 1)
From the text: (§1) Human lung cancer cell lines (H1299, H460, A549, H226B, and PC9), breast cancer cell line (MDA-MB-231), liver cancer cell line (Hep3B), kidney cancer cell line (786-0), prostate cancer cell lines (DU145 and PC-3), and mouse lung cancer cell line (Lewis Lung Carcinoma, LLC) were purchased from ATCC (American Type Culture Collection) or obtained from Dr. John V. Heymach of MD Anderson Cancer Center, USA. The human head and neck cancer cell line (UMSCC38) was obtained from Dr. Jeffrey N. Myers (MD Anderson Cancer Center, USA). Human colon cancer cell lines (HCT116 and HT-29) and glioblastoma cell line (U87MG) were obtained from Professor Sang Kook Lee (Seoul National University College of Pharmacy). The human kidney cancer cell line (Caki-1), and gastric cancer cell line (SNU-638) were purchased from the Korean Cell Line Bank. The chemotherapy-resistant cells [paclitaxel-resistant H460 cells (H460/PcR), paclitaxel-resistant H226B cells (H226B/PcR), cisplatin-resistant H1299 cells (H1299/CsR), pemetrexed-resistant H1299 cells (H1299/PmR)] and molecularly targeted anticancer therapy-resistant cells [erlotinib-resistant PC9 cells (PC9/ER)] were constructed by treating the respective anti-cancer drugs for more than three months. H1299, H460, H226B, PC9, Hep3B, 786-0, DU145, PC-3, HCT116, HT-29, SNU-638, chemotherapeutic resistant cells, and molecularly targeted anticancer therapy-resistant cells were cultured in RPMI 1640 media containing 10% fetal bovine serum (FBS) and antibiotics at 37° C. under 5% CO2 conditions, while MDA-MB-231, UMSCC38, U87MG, Caki-1 were cultured in DMEM media containing 10% FBS and antibiotics at 37° C. under 5% CO2 conditions. Cells were passaged 1-2 times per week.
(§2) The cancer cell lines were seeded in a 96-well plate at a density of 2×10^3 cells per well and cultured for 24 hours to allow the cells to attach. The cells were then treated with diluted drugs in media for 3 days and cell viability was assessed using MTT assay or crystal violet (CB) assay. For the MTT assay, MTT solution dissolved in PBS was added to achieve a final concentration of 500 μg/mL and incubated for 2-4 hours, after which the medium was removed and the formed formazan was dissolved in 100% DMSO, followed by measuring the absorbance at 570 nm. For the CB assay, the cultured cells were fixed with 100% methanol, stained with a 0.025% crystal violet solution, dissolved in 1% SDS solution, and the absorbance was measured at 570 nm. Cell viability was calculated as the percentage of absorbance change in drug-treated group compared to vehicle (DMSO) treated control group.

[2] = test system: cancer cell lines of various origins; experiment: Anchorage-dependent colony formation in cancer cell lines of various origins; assay type: cell-based, human; conditions: 50 nM, 2 weeks (FIG. 3)
From the text: Human lung cancer cell lines (H1299, H460, A549, H226B, and PC9), breast cancer cell line (MDA-MB-231), liver cancer cell line (Hep3B), kidney cancer cell line (786-0), prostate cancer cell lines (DU145 and PC-3), and mouse lung cancer cell line (Lewis Lung Carcinoma, LLC) were purchased from ATCC (American Type Culture Collection) or obtained from Dr. John V. Heymach of MD Anderson Cancer Center, USA. The human head and neck cancer cell line (UMSCC38) was obtained from Dr. Jeffrey N. Myers (MD Anderson Cancer Center, USA). Human colon cancer cell lines (HCT116 and HT-29) and glioblastoma cell line (U87MG) were obtained from Professor Sang Kook Lee (Seoul National University College of Pharmacy). The human kidney cancer cell line (Caki-1), and gastric cancer cell line (SNU-638) were purchased from the Korean Cell Line Bank. […]
Cancer cell lines were seeded in a 24-well or 6-well plate at 100-250 cells per well and allowed to attach, followed by treatment with drugs diluted in media and cultured for 2-3 weeks. Formed colonies were stained with crystal violet and counted. The drug's colony formation inhibitory effect was calculated as the percentage of colony number change in the drug-treated group compared to the vehicle (DMSO)-treated control group.

[3] = test system: Hsp70 protein and Hsp70/Hsp90 client proteins (Akt, Src, and MEK); experiment: Western blot of Hsp70 and client proteins in lung cancer cells; assay type: cell-based, human
From the text: as §1
The cells treated with the drug were treated with RIPA lysis buffer [50 mM Tris-HCl (pH 7.4), 150 mM NaCl, 1 mM EDTA, 0.25% sodium deoxycholate, 1% Triton X-100, 100 mM NaF, 5 mM Na3VO4, 1 mM PMSF, 1 μg/mL aprotinin, 1 μg/mL leupeptin, and 1 μg/mL pepstatin], followed by incubation on ice for 10 minutes and centrifugation at 13,000 rpm for 15 minutes to extract proteins. The proteins were quantified by BCA assay and equal amounts of proteins were separated by 8-10% SDS-PAGE. The separated proteins were transferred to a PVDF membrane, and the areas of the membrane not transferred with protein were blocked by incubating the membrane in 5% skim milk solution or 3% BSA solution diluted in TBST at room temperature for 1 hour. The membrane was then incubated in a primary antibody solution diluted 1:1,000 in 3% BSA at 4° C. for more than 12 hours. The primary antibody used was either anti-Hsp70 or anti-actin, with the anti-Hsp70 antibody obtained from Enzo Life Science and the actin antibody obtained from Santa Cruz Biotechnology. After incubation, the membrane was washed for 1 hour while changing TBST several times, and then incubated for 1 hour at room temperature with a secondary antibody (GeneTex) diluted 1:5,000 in 5% skim milk solution. After incubation, the membrane was washed for 1 hour while changing TBST several times, and then treated with an enhanced chemiluminescence (ECL) solution. The expression of Hsp70 or Actin protein was detected using LAS4000.

[4] = test system: H460 xenograft tumors; experiment: H460 xenograft tumor growth in NOD/SCID mice; assay type: in vivo, mouse; conditions: 20 mg/kg orally six times a week, vs control group (FIG. 7)
Method: (§3) H460 cells (5×10^6 cells/spot) or lung cancer patient-derived tumors were implanted into the flank of 6-week-old NOD/SCID mice, or LLC-Luc cells (5×10^5 cells/spot) were implanted into the flank of 8-week-old C57BL/6 mice to form tumors. When the tumor volume reached 50-100 mm^3, the mice were divided into control and experimental groups (with at least 6 mice assigned to each group), and the control group was administered with vehicle (10% DMSO and 40% PEG400 solution prepared in sterile distilled water), while the experimental group was administered with EV507 (20 mg/kg) six times a week orally. The major and minor axes of the tumor were measured, and the tumor size was measured at least 3-4 times a week, and the body weight was measured at least once a week to evaluate the toxicity of the drug. Also, the survival of C57BL/6 mice implanted with LLC-Luc cells was monitored to determine the survival curve. The tumor volume was calculated as (width)^2× length×0.5.

[5] = test system: LLC-Luc tumors; experiment: Survival in LLC-Luc transplant allograft (lung metastasis) model; assay type: in vivo, mouse; conditions: C57BL/6 mice, 20 mg/kg orally six times a week (FIG. 8)
Method: as §3
Moreover, it is known that in the LLC-Luc transplant allograft model that spontaneously generates pulmonary metastatic cancer, mouse mortality occurs due to the proliferation of transplanted LLC-Luc tumors and the formation of pulmonary metastatic cancer. In this allograft model, EV507 was administered to confirm its inhibitory effect on mouse mortality caused by tumor proliferation.

[6] = test system: lung cancer cell; experiment: Cancer cell survival inhibitory activity (MTT assay) of EV501 to EV509; assay type: cell-based; conditions: 0.5 μM (lowest concentration), MTT assay (FIG. 18)
Method: as §2

[7] = test system: cancer cell; experiment: Cancer cell survival inhibitory activity (crystal violet assay); assay type: cell-based; conditions: crystal violet assay (FIG. 19)
Method: as §2

C=CCN1c2ccccc2C(=O)N2CCc3c([nH]c4ccc(O)cc34)C21 (centres unmarked) [EV507] was tested, and the “inhibition of cancer cell survival (cell viability)” value [1] was “most excellent efficacy”, the “formation of colonies under anchorage-dependent conditions” value [2] was “significantly inhibited” and the “expression of Hsp70 protein and Hsp70/Hsp90 client proteins (Akt, Src, and MEK)” value ([3]; H1299, H460, A549, H226B lung cancer cell lines (FIG. 4)) was “clear reduction”. The “expression of Hsp70 and Src and Akt (client proteins of Hsp70/Hsp90)” value ([3]; Western blot (FIG. 21)) was “decrease”, the tumor growth [4] was “significantly inhibited” and the mouse mortality [5] was “significantly reduced”. For the same compound, the inhibition at 0.5 µM [6] was over 65% and the “cancer cell survival inhibitory activity” value [7] was “excellent”.
